# Laboratory results published in ChEMBL document CHEMBL1255321, “Prevalence of the erm(T) gene in clinical isolates of erythromycin-resistant group D Streptococcus and Enterococcus” (2008).
# The source made the active and inactive calls. No cut-off for these calls is given here.
# Experiments:
# Streptococcus sp. [1] = assay: Antimicrobial activity against Group D Streptococcus sp. clinical isolates expressing erm(T) gene by Etest; type: functional
# Streptococcus sp. [2] = assay: Antimicrobial activity against Group D Streptococcus sp. clinical isolates assessed as resistant isolates; type: functional
# Enterococcus faecalis = assay: Antimicrobial activity against Group D Enterococcus faecalis clinical isolate expressing erm(B) gene by disk diffusion method; type: functional, organism-based
# Enterococcus faecium [3] = assay: Antimicrobial activity against Group D Enterococcus faecium clinical isolate expressing erm(B) and erm(T) genes by disk diffusion method; type: functional, organism-based
# Enterococcus faecium [4] = assay: Antimicrobial activity against Group D Enterococcus faecium clinical isolate expressing erm(B) gene by disk diffusion method; type: functional, organism-based
# Streptococcus sp. [5] = assay: Antimicrobial activity against erythromycin-resistant Group D Streptococcus sp. clinical isolates expressing erm(T) gene by Etest; type: functional
Structure (SMILES),MIC (Streptococcus sp. [1]),Activity (Streptococcus sp. [2]),Activity (Enterococcus faecalis),Activity (Enterococcus faecium [3]),Activity (Enterococcus faecium [4]),MIC (Streptococcus sp. [5])
CCC[C@@H]1C[C@@H](C(=O)N[C@@H]([C@H]2O[C@H](SC)[C@H](O)[C@@H](O)[C@H]2O)[C@H](C)Cl)N(C)C1 [CLINDAMYCIN],0.125 µg/mL,33%,,,,
CC[C@H]1OC(=O)[C@H](C)[C@@H](O[C@H]2C[C@@](C)(OC)[C@@H](O)[C@H](C)O2)[C@H](C)[C@@H](O[C@@H]2O[C@H](C)C[C@H](N(C)C)[C@H]2O)[C@](C)(O)C[C@@H](C)C(=O)[C@H](C)[C@@H](O)[C@]1(C)O [ERYTHROMYCIN],0.064 µg/mL,54%,inactive,inactive,inactive,≥ 256 µg/mL
